Experimental data: patent US20160228452A1, “TREATMENT OF METABOLIC DISEASES BY INHIBTION OF HTR2A OR HTR3” (Korea Advanced Institute of Science and Technology, priority 2014, published 2016)
Entries after “also recorded” stand apart in the source; their conditions may differ.

Tests used:
[1] = tested on: SV cells from Tph1 FKO mice; assay: Ex vivo differentiation of SVF from BAT of Tph1 FKO mice, Ucp1 mRNA; assay type: cell-based; conditions: after 8 days of differentiation
Experimental: The stromal vascular fraction of epididymal, inguinal and BAT from 6- to 7-week-old mice was separated by collagenase digestion. Briefly, the adipose tissues were dissected, minced and digested with 0.2% collagenase A (Roche) in Hank's balanced salts solution (Sigma) for 45 min at 37° C. with constant shaking. Mature adipocytes and connective tissues were separated from the cell pellet by centrifugation at 800×g for 10 min at 4° C. The cell pellet was then suspended with RBC lysis buffer (Sigma) and filtered through a 40-μm mesh filter (BD bioscience). The pelleted stromal vascular cells (SVCs) were re-suspended in DMEM containing 10% FBS and seeded in 6-well plates for adipogenic differentiation.
(§1) Total RNA was extracted from the mouse tissues or cell lines using TRIzol reagent (Invitrogen) according to the manufacturer's protocol. After TURBO DNase (Invitrogen) treatment, 2 μg of total RNA was used to generate complementary DNA with Superscript III reverse transcriptase (Invitrogen). To analyze gene expression, real-time PCR was performed with a ViiA 7 Real-Time PCR system (Applied Biosystems) and the Power SYBR Green PCR master mix (Applied Biosystems). Relative quantification was based on the ddCt method, and ActB was used as an endogenous control (internal control).

Htr2a [2] = target: T1, Htr2a (Mus musculus, UniProt P35363); assay: Glycerol release assay (lipolysis) in 3T3-L1 mature adipocytes; assay type: cell-based, murine; conditions: 24 h
Experimental: (§2) Murine 3T3-L1 cells (American Type Culture Collection) were cultured in DMEM supplemented with 10% fetal calf serum and 100 μg/mL P/S in a humidified atmosphere of 5% CO2 at 37° C. Two days after reaching confluence, the cells were induced to differentiate using medium supplemented with 0.5 mM IBMX, […] and 1 μM dexamethasone (day 0). After two days, the medium was replaced with DMEM supplemented with […] in 10% FBS and P/S (day 2), and it was changed every two days from days 4 to 8.
Lipolysis was measured as the rate of glycerol release using a free glycerol reagent (Sigma) following the manufacturer's protocol. Briefly, fully differentiated 3T3-L1 adipocytes in a 24-well plate were incubated with 5-HT or DOI in Krebs Ringer phosphate buffer (136 mM NaCl, 4.7 mM KCl, 10 mM NaPO4, 0.9 mM MgSO4, and 0.9 mM CaCl2) containing 4% fatty acid-free bovine serum albumin (Sigma) for 24 h. Isoproterenol was used as a positive control. After incubation, 10 μL of the cell culture supernatant was mixed with 0.8 mL of the free glycerol reagent, and the mixture was then incubated at 37° C. for 5 min. The absorbance of the sample was determined at 540 nm using a spectrophotometer (DU730 Life Science UV/Vis, Beckman Coulter, Indianapolis, Ind., USA). The amount of released glycerol was expressed relative to the cellular protein content.

Htr3 [3] = target: T2, Htr3 (Mus musculus, UniProt P23979); assay: cAMP assay (competitive ELISA) in immortalized brown adipocytes; assay type: cell-based
T2 construct: we explored the direct actions of Htr3 on BAT using immortalized brown adipocytes (IBAs); endogenous in cells; host or cells: differentiated immortalized brown adipocytes (IBAs)
T2 sequence (P23979 24-489): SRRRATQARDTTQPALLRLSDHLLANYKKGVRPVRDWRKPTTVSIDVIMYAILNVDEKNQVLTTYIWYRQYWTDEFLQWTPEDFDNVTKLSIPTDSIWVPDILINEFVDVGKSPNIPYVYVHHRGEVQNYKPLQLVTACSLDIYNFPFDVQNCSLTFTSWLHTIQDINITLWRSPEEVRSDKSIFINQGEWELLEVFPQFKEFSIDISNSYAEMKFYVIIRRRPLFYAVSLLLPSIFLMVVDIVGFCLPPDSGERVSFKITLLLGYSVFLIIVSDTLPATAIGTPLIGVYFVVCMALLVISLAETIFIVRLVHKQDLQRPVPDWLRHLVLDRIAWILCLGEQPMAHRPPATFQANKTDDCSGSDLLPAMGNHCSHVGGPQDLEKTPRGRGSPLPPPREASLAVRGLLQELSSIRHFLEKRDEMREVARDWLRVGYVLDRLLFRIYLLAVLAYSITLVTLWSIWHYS
T2 sequence (Q9JHJ5 22-437 partner): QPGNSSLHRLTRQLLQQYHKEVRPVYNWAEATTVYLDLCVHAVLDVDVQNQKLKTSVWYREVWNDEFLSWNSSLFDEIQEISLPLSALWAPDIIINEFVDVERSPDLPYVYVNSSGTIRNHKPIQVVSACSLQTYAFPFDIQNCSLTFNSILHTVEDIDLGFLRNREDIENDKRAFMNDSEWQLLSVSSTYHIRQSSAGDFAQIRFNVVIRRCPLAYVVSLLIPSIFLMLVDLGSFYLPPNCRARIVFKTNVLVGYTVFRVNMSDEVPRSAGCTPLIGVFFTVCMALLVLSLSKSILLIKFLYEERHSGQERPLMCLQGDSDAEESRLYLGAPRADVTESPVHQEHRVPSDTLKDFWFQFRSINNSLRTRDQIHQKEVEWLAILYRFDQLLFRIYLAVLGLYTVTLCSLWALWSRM
Experimental: (§3) IBAs were cultured in DMEM supplemented with 10% FBS and P/S in a humidified atmosphere of 5% CO2 at 37° C.^32. After reaching 95% confluence, the cells were induced to differentiate using DMEM with 10% FBS, 0.5 μg/mL insulin, 1 nM T3, 0.125 mM indomethacin, 2 μg/mL dexamethasone, 0.5 μM IBMX and P/S (day 0). After two days, the medium was replaced with DMEM supplemented with 10% FBS, 0.5 μg/mL insulin, 1 nM T3 and P/S (day 2), and it was changed every two days from days 4 to 8. We confirmed that these cell lines are free from Mycoplasma infection.
Differentiated IBAs were treated with 1 uM ondansetron or 100 nM m-CPBG or 1 uM CL-316243 for 15 min. 1 uM […] was used as a positive control. The cAMP competitive ELISA (Promega) was performed according to the manufacturer's instruction. Briefly, cAMP was extracted by adding 0.1 M HCl with 0.5% triton X-100 to the cells. After centrifugation at 600 g for 10 min, the supernatant was used for the determination of cAMP levels by competitive cAMP ELISA.

Htr3 [4] = target: T2, Htr3; assay: Real-time PCR of thermogenic genes in IBAs; assay type: cell-based; conditions: 2 h after ondansetron treatment
Experimental: as §3, §1

Htr3 [5] = target: T2, Htr3; assay: Western blot for phosphorylation of PKA pathway components in IBAs; assay type: cell-based; conditions: IBAs pretreated with ondansetron, in the presence of β3-adrenergic receptor agonist
Experimental: as §3
Whole-cell lysates were extracted by incubating cells in RIPA buffer (25 mM Tris-HCl pH 7.6, 150 mM NaCl, 1% NP-40, 1% sodium deoxycholate, 0.1% SDS) plus protease inhibitors (Roche). Supernatant was collected following a brief centrifuge, and protein concentrations in the supernatant were determined using the BCA Protein Assay Kit (Thermo Scientific, Rockford, Ill., USA). The cell lysates were then mixed with equal volumes of 2× Laemmli buffer (4% SDS, 20% glycerol, 10% 2-mercaptoethanol, 0.01% bromophenol blue, and 120 mM Tris-HCl, pH 6.8) and boiled for 5 min at 95° C. Then, the protein samples were separated by SDS-PAGE and transferred to a PVDF membrane (Millipore). […]

Htr3 [6] = target: T2, Htr3; assay: OCR assay (Seahorse XF24) in IBAs; assay type: cell-based; conditions: fully differentiated IBAs pretreated 30 min, then β3 agonist CL-316243
Experimental: IBAs were cultured in DMEM supplemented with 10% FBS and P/S in a humidified atmosphere of 5% CO2 at 37° C.^32. After reaching 95% confluence, the cells were induced to differentiate using DMEM with 10% FBS, 0.5 μg/mL insulin, 1 nM T3, 0.125 mM indomethacin, 2 μg/mL dexamethasone, 0.5 μM IBMX and P/S (day 0). After two days, the medium was replaced with DMEM supplemented with 10% FBS, 0.5 μg/mL insulin, 1 nM T3 and P/S (day 2), and it was changed every two days from days 4 to 8. […] The OCRs of the cells were measured using a Seahorse XF analyzer (Seahorse Bioscience, Billerica, Mass., USA). After seeding IBAs on an XF-24 plate, the cells were incubated and differentiated using the protocol described above. Fully differentiated IBAs were pre-treated with PBS and ondansetron for 30 min. Then, the IBAs were treated with the β3 agonist (CL-316243) and the mitochondrial inhibitors oligomycin and rotenone/antimycin. The OCRs were calculated and recorded by a sensor cartridge and the Seahorse XF-24 software.

Htr2a [7] = target: T1, Htr2a; assay: Real-time PCR of lipogenic genes in 3T3-L1 mature adipocytes; assay type: cell-based, murine
Experimental: as §2, §1

Htr2a [8] = target: T1, Htr2a; assay: Oil Red O staining of 3T3-L1 adipocytes; assay type: cell-based, murine; conditions: treatment during differentiation, absorbance at 520 nm
Experimental: Murine 3T3-L1 cells (American Type Culture Collection) were cultured in DMEM supplemented with 10% fetal calf serum and 100 μg/mL P/S in a humidified atmosphere of 5% CO2 at 37° C. Two days after reaching confluence, the cells were induced to differentiate using medium supplemented with 0.5 mM IBMX, 1 mg/mL insulin and 1 μM dexamethasone (day 0). After two days, the medium was replaced with DMEM supplemented with 1 mg/mL insulin in 10% FBS and P/S (day 2), and it was changed every two days from days 4 to 8. After full differentiation (day 8), 3T3-L1 adipocytes were fixed with 3.7% (w/v) formaldehyde in PBS for 15 min at room temperature and then washed three times with PBS. Then, the cells were stained with filtered Oil Red 0 solution (1.5 mg/mL 60% (v/v) isopropanol) for 30 min and then rinsed twice with distilled water. To quantify the amount of Oil Red 0 staining, the cells were eluted with 100% isopropranol for 10 min, and the absorbance densities of the extracts were measured at 520 nm using a VersaMax microplate reader (Molecular Devices, Sunnyvale, Calif., USA).

T1 sequence (P35363 whole entry): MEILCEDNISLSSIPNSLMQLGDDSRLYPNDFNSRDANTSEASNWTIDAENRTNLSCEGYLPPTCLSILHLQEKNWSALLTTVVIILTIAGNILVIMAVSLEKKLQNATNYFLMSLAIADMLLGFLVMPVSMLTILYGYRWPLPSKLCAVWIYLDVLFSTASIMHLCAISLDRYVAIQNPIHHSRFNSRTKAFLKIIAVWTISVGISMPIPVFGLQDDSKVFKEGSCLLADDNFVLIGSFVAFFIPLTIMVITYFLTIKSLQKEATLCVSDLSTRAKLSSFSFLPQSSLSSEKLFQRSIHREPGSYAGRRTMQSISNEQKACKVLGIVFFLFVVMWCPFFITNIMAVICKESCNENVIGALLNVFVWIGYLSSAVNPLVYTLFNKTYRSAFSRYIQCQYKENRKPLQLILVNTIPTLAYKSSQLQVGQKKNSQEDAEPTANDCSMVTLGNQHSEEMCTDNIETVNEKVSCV

NCCc1c[nH]c2ccc(O)cc12 [5-HT, 5-hydroxytryptamine]
Ucp1 mRNA level [1]: abrogated; also recorded: suppressed
glycerol release (lipolysis) (Htr2a [2]): suppressed lipolysis; also recorded: reduced the glycerol release

Cc1nccn1CC1CCc2c(c3ccccc3n2C)C1=O (racemic) [ondansetron, (RS)-9-methyl-3-[(2-methyl-1H-imidazol-1-yl)methyl]-2,3-dihydro-1H-carbazol-4(9H)-one]
cAMP level after β3AR stimulation (Htr3 [3]; IBAs pretreated with 1 uM ondansetron, in the presence of β3-adrenergic receptor agonist CL 316243): increased cAMP levels
cAMP level in the absence of β3AR agonist (Htr3 [3]; IBAs, 1 uM ondansetron or 100 nM m-CPBG, 15 min): did not affect cAMP levels
mRNA expression of thermogenic genes (Ucp1, Ppargc1a) (Htr3 [4]): increased
phosphorylation of HSL and PKA substrate (PKA pathway components) after β3AR stimulation (Htr3 [5]): increased phosphorylation
oxygen consumption rate (OCR) (Htr3 [6]): increased the OCR synergistically; also recorded: increased the oxygen consumption rate

COc1cc(CC(C)N)c(OC)cc1I (stereo not shown) [DOI, 2,5-dimethoxy-4-iodoamphetamine]
glycerol release (lipolysis) (Htr2a [2]): suppressed lipolysis; also recorded: reduced the glycerol release
mRNA levels of lipogenic genes (Htr2a [7]): increased

O=C(c1ccc(F)cc1)C1CCN(CCn2c(=O)[nH]c3ccccc3c2=O)CC1 [ketanserin, 3-{2-[4-(4-fluorobenzoyl)piperidin-1-yl]ethyl}quinazoline-2,4(1H,3H)-dione]
lipogenesis (optical density of Oil Red O extract) (Htr2a [8]): decreased lipogenesis; also recorded: reduced the optical density of the extract
